Experiments:
sigma-1 receptor = target: T1, sigma-1 receptor (Cavia porcellus, UniProt Q60492); test: Sigma-1 receptor binding, [3H](+)-pentazocine displacement in guinea pig brain membrane homogenates; settings: inhibiting binding of [3H](+)-pentazocine to guinea pig brain homogenates; mean ± S.E.M., at least three experiments
T1 construct: guinea pig brain (sigma-1 assay) or rat liver (sigma-2 assay) membrane homogenates; from tissue; host or cells: guinea pig brain membrane homogenate
Method: The sigma-1 and sigma-2 receptor binding affinities of SW IV-134 were determined as previously described. Briefly, guinea pig brain (sigma-1 assay) or rat liver (sigma-2 assay) membrane homogenates (~300 μg protein) were diluted with 50 mM Tris-HCl, pH 8.0 and incubated with the radioligand {~5 nM [^3H](+)-pentazocine (34.9 Ci/mmol; sigma-1 assay) or ~5 nM [3H](+)-DTG (58.1 Ci/mmol; sigma-2 assay)} and SW IV-134 with concentrations ranging from 0.1 nM to 10 μM in a total volume of 150 μL in 96-well plates at 25°C. […] Each filter was washed three times with 200 μL of ice-cold wash buffer, and the bound radioactivity quantified using a Wallac 1450 MicroBeta liquid scintillation counter (Perkin Elmer, Boston, MA). Nonspecific binding was determined in the presence of 10 μM cold haloperidol. […]
Table S1. […] The sigma-1 and sigma-2 receptor binding affinities of S W I V-134 were determined as previously described (22). For details see also the Materials and Methods section. a Mean ± S .E .M .K i values were determined by at least three ex periments. b Ki for inhibiting the binding of [ 3H] […]

NIK = test: Western blot for NF-қB-inducing kinase (NIK); assay type: cell-based; settings: SKOV3 cells, 10 μM, 4 hours
Method: Figure 4 SW IV-134 engages in SMAC-dependent pathway activation. (A) SKOV3 cells were treated with vehicle only (Ctrl.), SW43 (10 μM), and SW IV-134 (10 μM) for 4 hours and cell lysates were subjected to Western blot analysis using antibodies against XIAP, cIAP-1, cIAP-2, NF-қB and NIK. While XIAP seems unaffected under the conditions used, cIAP-1 and cIAP-2 proteins are readily undetectable shortly post treatment. SW IV-134 treatment also leads to accumulation of NF-қB inducing kinase (NIK) and activation of NF-қB pathway. (B) SKOV3 cells were treated with SW IV-134 at the indicated doses either alone or in the presence of proteasome inhibitor MG132 (20 μM) for 18 hours. […] Cell viability was determined as described in the experimental methods (p < 0.011, Student’s t-test).
Cells were lysed in radioimmunoprecipitation assay buffer [50 mM Tris, 150 mM sodium chloride, 1.0 mM EDTA, 1% Nonidet P40, and 0.25% SDS (pH 7.0)], supplemented with complete protease inhibitor cocktail (Roche, Mannheim) and phosphatase inhibitor cocktail 1 (Sigma Chemical Co., St. Louis, MO). The protein concentration was determined using a BioRad Dc protein assay kit (Bio-Rad Laboratories, Hercules, CA). Lysates containing 30 μg of protein were run on a 12% polyacrylamide gel and transferred to a PVDF membrane (Bio-Rad Laboratories, Hercules, CA). […]

SKOV3 cells = test: Annexin V binding (apoptosis), flow cytometry; assay type: cell-based; settings: SKOV3 cells, 3, 6 and 10 μM, 16 hours
Method: SKOV3 cells were treated with different concentrations of SW IV-134 (3 μM, 6 μM, and 10 μM) for 16 hours. Staining was performed using the Annexin V Apoptosis Detection Kit (BioLegend, San Diego, CA) according to the manufacturer’s instructions. The apoptosis rate was determined by flow cytometry (FACSCalibur, BD Biosciences, San Jose, CA).
Supplementary file 1476-4598-13-50-S4.pdf: Additional file 4: Figure S3 Flow cytometric determination of apoptosis. SKOV3 cells were treated with increasing concentrations of SW IV-134. Untreated cells served as a negative staining control. The cells were then assessed for apoptosis induction by flow cytometry following staining with propidium iodide/Annexin V. Click here for file

T1 sequence (Q60492 whole entry): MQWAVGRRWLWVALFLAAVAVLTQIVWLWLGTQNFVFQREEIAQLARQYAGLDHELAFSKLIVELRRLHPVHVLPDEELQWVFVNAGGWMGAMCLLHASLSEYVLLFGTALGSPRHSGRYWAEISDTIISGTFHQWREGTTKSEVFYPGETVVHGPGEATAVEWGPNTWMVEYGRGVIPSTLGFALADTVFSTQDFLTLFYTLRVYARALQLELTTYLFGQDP

Row | Structure (SMILES) | Ki (sigma-1 receptor) [nM] | Accumulation of NIK (NIK) | Annexin V binding (SKOV3 cells)
1 | COc1ccc(C)cc1NC(=O)OC1CC2CCCC(C1)N2CCCCCCCCCCN (centres unmarked) [SW43, reference compound] | 134 ± 11.9 | not seen | 
2 | COc1ccc(C)cc1NC(=O)OC1CC2CCCC(C1)N2CCCCCCCCCCN[C@@H](C)C(=O)N[C@H](C(=O)N1CCC[C@H]1C(=O)N[C@@H]1CCCc2ccccc21)C(C)(C)C (some centres unmarked) [SW IV-134] | 5740 ± 476 | accumulation of NIK | increased Annexin V binding relative to the untreated control cells in a dose dependent manner

— article PMC4015918, “Conjugation to a SMAC mimetic potentiates sigma-2 ligand induced tumor cell death in ovarian cancer” (Molecular Cancer, 2014)
